Measured values from article PMC3633919, “Identification and Characterization of Pheromone Receptors and Interplay between Receptors and Pheromone Binding Proteins in the Diamondback Moth, Plutella xyllostella” (PLoS ONE, 2013).
pEC50: −log10 of the molar value.

Assays:
[1] = biological target: T1, PxylOR4/PxylOrco (Plutella xylostella, UniProt M9ZZM3); assay: two-electrode voltage clamp, Xenopus oocytes; assay type: cell-based
T1 construct: full-length untagged ORF 1209 bp (402 residues); pSP64T cRNA co-injected with PxylOrco cRNA in Xenopus laevis oocytes; with Odorant receptor coreceptor
T1 sequence (M9ZZM3 1-402): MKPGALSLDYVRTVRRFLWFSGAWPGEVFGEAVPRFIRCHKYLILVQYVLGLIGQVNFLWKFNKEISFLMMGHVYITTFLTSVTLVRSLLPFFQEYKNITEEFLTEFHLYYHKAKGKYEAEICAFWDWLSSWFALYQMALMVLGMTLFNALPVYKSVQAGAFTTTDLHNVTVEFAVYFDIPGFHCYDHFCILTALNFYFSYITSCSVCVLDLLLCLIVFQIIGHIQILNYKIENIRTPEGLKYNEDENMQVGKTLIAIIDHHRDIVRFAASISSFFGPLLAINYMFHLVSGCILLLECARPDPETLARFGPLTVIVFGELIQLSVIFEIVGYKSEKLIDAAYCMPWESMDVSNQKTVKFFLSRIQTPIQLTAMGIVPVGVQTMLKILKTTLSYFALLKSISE
T1 sequence (D0EZE1 1-471 partner): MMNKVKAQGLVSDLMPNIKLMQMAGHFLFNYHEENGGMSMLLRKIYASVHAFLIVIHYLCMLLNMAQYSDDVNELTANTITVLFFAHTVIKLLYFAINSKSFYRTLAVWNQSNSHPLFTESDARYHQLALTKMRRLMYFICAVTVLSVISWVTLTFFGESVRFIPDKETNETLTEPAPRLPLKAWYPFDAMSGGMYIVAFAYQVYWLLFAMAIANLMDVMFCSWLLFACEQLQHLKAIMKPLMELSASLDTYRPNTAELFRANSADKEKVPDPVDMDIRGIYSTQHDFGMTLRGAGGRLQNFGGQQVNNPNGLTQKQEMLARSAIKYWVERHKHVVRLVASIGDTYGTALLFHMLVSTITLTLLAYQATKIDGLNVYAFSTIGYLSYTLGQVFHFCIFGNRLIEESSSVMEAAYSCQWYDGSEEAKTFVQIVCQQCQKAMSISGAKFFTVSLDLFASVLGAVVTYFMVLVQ

[2] = biological target: T2, PxylOR1/PxylOrco (Plutella xylostella, UniProt N0A395); assay: two-electrode voltage clamp, Xenopus oocytes; assay type: cell-based
T2 construct: full-length untagged ORF 1269 bp (422 residues); pSP64T cRNA co-injected with PxylOrco cRNA in Xenopus laevis oocytes; with Odorant receptor coreceptor
T2 sequence (N0A395 1-422): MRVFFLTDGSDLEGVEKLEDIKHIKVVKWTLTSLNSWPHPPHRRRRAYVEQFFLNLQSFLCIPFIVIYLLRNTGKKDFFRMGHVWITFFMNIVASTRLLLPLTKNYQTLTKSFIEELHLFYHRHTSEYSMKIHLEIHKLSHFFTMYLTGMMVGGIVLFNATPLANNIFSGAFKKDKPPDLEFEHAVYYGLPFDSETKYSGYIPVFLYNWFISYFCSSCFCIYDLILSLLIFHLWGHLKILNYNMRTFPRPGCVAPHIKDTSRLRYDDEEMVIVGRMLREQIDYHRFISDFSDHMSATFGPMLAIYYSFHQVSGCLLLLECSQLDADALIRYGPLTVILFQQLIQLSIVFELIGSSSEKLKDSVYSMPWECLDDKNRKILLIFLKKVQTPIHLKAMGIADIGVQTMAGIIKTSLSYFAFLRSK
T2 sequence (D0EZE1 1-471 partner): T1 sequence (D0EZE1 1-471 partner)

| SMILES | pEC50 [1] | pEC50 [2] |
| --- | --- | --- |
| C/C=C/C/C=C\CCCCCCCCOC(C)=O [Z9,E12-14:Ac] | 5.71 |  |
| CCCC/C=C\CCCCCCCCCC=O [Z11-16:Ald, (Z)-11-hexadecenal] |  | 4.62 |
| CCCC/C=C\CCCCCCCCOC(C)=O [Z9-14:Ac, (Z)-9-tetradecenyl acetate] | 6.61 |  |
